According to ChEMBL document CHEMBL1201862, “PubChem BioAssay data set” (2004):
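Grown in 96-well plates, cells were treated for 48 hours with each compound at five concentrations. Insufficient inhibition: endpoint recorded as highest concentration tested. Abbreviation: GI50, concentration required for 50% inhibition of growth.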 Activity calls are given as the source filed them. Rule as the data show it: active = GI50 up to about 1.1 µM and inactive = higher.

How the values were obtained:
Experiment in all cases: NCI-60 cell line screen, 48 h
[1] = test system: A549
[2] = test system: COLO 205
[3] = test system: EKVX
[4] = test system: HCC 2998
[5] = test system: HL-60
[6] = test system: Malme-3M
[7] = test system: NCI-H226
[8] = test system: NCI-H23
[9] = test system: NCI-H522
[10] = test system: OVCAR-3
[11] = test system: OVCAR-8
[12] = test system: SF-539
[13] = test system: SK-MEL-2
[14] = test system: SK-MEL-5
[15] = test system: SN12C
[16] = test system: SW-620
[17] = test system: TK-10
[18] = test system: U-251
[19] = test system: UACC-62
[20] = test system: UO-31

Measured: GI50

CC(=O)NNc1nc(C)c(C(=O)NNC(=O)C(=O)Nc2ccccc2C#N)s1
inactive: [1] > 100 µM | [2] > 100 µM | [3] > 100 µM | [4] > 100 µM | [5] > 100 µM | [6] > 100 µM | [7] > 100 µM | [8] > 100 µM | [9] 88.1 µM | [10] > 100 µM | [11] > 100 µM | [12] > 100 µM | [13] > 100 µM | [14] > 100 µM | [15] > 100 µM | [16] > 100 µM | [17] > 100 µM | [18] > 100 µM | [19] > 100 µM | [20] > 100 µM
